Measured values as given in ChEMBL document CHEMBL3507680, “University of Dundee, Gates Library screen for HepG2 cell viability”.

Assay: Human HepG2 cell viability assay in 384 well format
Format: toxicity, cell-based
Parameters: dose 125 nL, time 70.5 hour; cytotoxicity at 70.5 h: concentration not given beside the values
Settings: HepG2 cells, read-out: Inhibition

| SMILES | cytotoxicity at 70.5 h [%] |
| --- | --- |
| Cc1c(CS(C)(=O)=O)cccc1NCC1CCCCC1 | 7.16 |
| Cc1cc(C)nc(NC2CC(=O)N(C(C)(C)C)C2)n1 (stereo not given) | 7.77 |
| Cc1c(CS(C)(=O)=O)cccc1NCCCC1CCCC1 | -7.83 |
| Cc1cc(N2CCSCC2)ccc1NC(=O)N(CCO)C1CC1 | -5.59 |
| Cc1nnc(C(C)NCC2(c3ccc(F)cc3)CCCCC2)o1 (stereo not given) | -5.27 |
| Cc1noc(C)c1CN1CCC(c2nc3cc(Cl)ccc3o2)CC1 | -14.6 |
| CS(=O)(=O)NCCC1CCCCN1C(=O)NCCc1ccccc1 (stereo not given) | 17.9 |
| CC(CNC(=O)c1cc(Cl)ccc1I)N1CCCC1 (stereo not given) | -17.1 |
| CCOc1cccc(C(C)NC(=O)N2CCC3(CC2)OCCO3)c1 (stereo not given) | -13.2 |
| COc1cccc(C(=O)NS(=O)(=O)c2cncc(Br)c2)c1OC | -12.4 |
| CCC(O)CN1CCN(C(=O)CN(C)c2ccc(Cl)cn2)CC1 (stereo not given) | -5.06 |
| Cc1nnc(C(C)NCC2(c3ccc(Cl)cc3)CCOCC2)o1 (stereo not given) | -18.1 |
| Cc1cc(C)c2c(OCC(=O)NCC(O)C(F)(F)F)nn(C)c2n1 (stereo not given) | -15.2 |
| Cc1noc(C)c1CN(C)C(=O)Nc1cnn(CC2CCCO2)c1 (stereo not given) | -16.8 |
| CCc1cnc(CN(C)C(=O)Nc2cnn(CC3CCCO3)c2)s1 (stereo not given) | -4.76 |
| CCS(=O)(=O)CCSc1cccc(C#N)c1 | -23.7 |
| CCCS(=O)(=O)CCSc1cccc(C#N)c1 | -11.2 |
| Cn1cc(Br)c(=O)c(NS(=O)(=O)c2ccc(Cl)cc2)c1 | -18.4 |
| CC(CNC(=O)c1ccc(Cl)cc1F)N1CCCC1 (stereo not given) | -16.4 |
| CC(O)CN1CCN(C(=O)CN(C)c2ccc(C#N)cn2)CC1 (stereo not given) | 10.3 |
| Cc1cccc(C2(CNC(C)c3nnc(C)o3)CCCC2)c1 (stereo not given) | -6.44 |
| Cc1cc(CN2CCN(C(=O)CCc3ccco3)CC2)on1 | -9.48 |
| CC(=O)N1CCCN(C(=O)CN(C)c2ccc(Cl)cn2)CC1 | 10.7 |
| Cn1ccnc1CNc1c(F)cccc1-n1cccn1 | -7.82 |

| SMILES | cytotoxicity at 70.5 h [%] |
| --- | --- |
| COc1ccc(CCNC(=O)Nc2cc(C)nn2C)cc1 | -2.92 |
| O=C(CCc1ccccc1Br)NCC(=O)NCc1ccccc1 | -7.06 |
| COc1ccc(CN(C)C(=O)NC(C)c2nncn2C)cc1F (stereo not given) | -6.21 |
| CCN(CC)c1ccc(NC(=O)NC(C)Cn2cccn2)cn1 (stereo not given) | -6.74 |
| O=C(c1ccn(-c2cccc(F)c2)n1)N1CCN(CC2CC2)CC1 | -7.87 |
| Cc1cc(NC(=O)NCC(c2ccsc2)N(C)C)n(C)n1 (stereo not given) | -10.2 |
| CC(NC(=O)N(C)Cc1cnn(C)c1)c1nncn1C (stereo not given) | -2.09 |
| Cc1nnc2n1CCN(Cc1csc(-c3cnn(C)c3)n1)C2 | -3.97 |
| CCc1nnc2n1CCN(Cc1csc(-c3ncccn3)n1)C2 | -9.92 |
| COc1ccc(CNC(=O)Nc2ccc(CN3CCOC3=O)cc2)cc1 | -0.36 |
| COCCNC(=O)Nc1ccc(CN2CCOC2=O)cc1 | -7 |
| Cn1nc2c(cc1=O)CN(CC(=O)Nc1cc(C(C)(C)C)no1)CC2 | 13.4 |
| CCCn1nc2c(cc1=O)CN(CC(=O)Nc1cc(C)no1)CC2 | -7.27 |
| Cc1ccc(S(=O)(=O)NC2CCC(=O)NC2)cc1Br (stereo not given) | -4.2 |
| Cn1cc(-c2csc(N3CCN(c4nccs4)CC3)n2)cn1 | -0.763 |
| O=C(CSc1ccc2c(c1)OCCO2)NS(=O)(=O)c1cc(F)ccc1F | -7.36 |
| COCCCNC(=O)CN(C)Cc1ccc(F)cc1Cl | 9.16 |
| CC(NC(=O)N(C)Cc1cccc(OC(F)F)c1)c1nncn1C (stereo not given) | -5.84 |
| Cc1nc(C2CCCN(C(=O)c3sc(C)nc3C)C2)no1 (stereo not given) | 37.2 |
| Cc1nc(C2CCCN(C(=O)c3cnc(C)s3)C2)no1 (stereo not given) | 10.2 |
| O=C(CN1CCc2ccccc21)NCc1ccc(Cl)cc1 | 3.34 |
| COc1ccc(NC(C)C(=O)N2CCN(c3ccccc3)CC2)cn1 (stereo not given) | -3.71 |
| CCCC(=O)N1CCC(C(=O)NCCN2CCC(C)CC2)CC1 | -1.92 |
| CCCN(C)C(=O)c1cc(S(=O)(=O)NCC)ccc1C | -1.03 |

| SMILES | cytotoxicity at 70.5 h [%] |
| --- | --- |
| CC1CCN(CCNC(=O)C2CCN(C(=O)C3CC3)CC2)CC1 | -3.28 |
| CS(=O)(=O)Nc1ccc(CNC(=O)CN2CCc3ccccc32)cc1 | 7.44 |
| CN(C)CCN(Cc1ccc(C(F)(F)F)cc1)C(=O)c1cc[nH]n1 | 16.2 |
| CN(C)CCN(Cc1ccc(Cl)cc1)C(=O)c1ccncc1 | -1.83 |
| CCCN1CCN(S(=O)(=O)c2ncn(C)c2Cl)CC1 | -4.77 |
| Cc1ccc(NC(=O)NC(C)(C)c2noc(C)n2)cc1 | 7.68 |
| COCc1ccc(CNC(=O)CN2CCc3ccccc32)cc1 | 1.24 |
| NS(=O)(=O)N1CCc2ccc(NC(=O)CCc3ccncc3)cc21 | 22.2 |
| NS(=O)(=O)N1CCc2ccc(NC(=O)CC(F)(F)F)cc21 | -1.59 |
| Cc1nc(C(C)(C)NC(=O)Nc2ccncc2)no1 | -0.296 |
| CC(C#N)CSc1ccccc1NCC(=O)NC1CCCCC1 (stereo not given) | -1.2 |
| COCCN(Cc1ccc(F)cc1Cl)C(=O)c1cc(C)n[nH]1 | -0.839 |
| Cc1cc(NC(C)C(=O)N2CCN(c3ncccn3)CC2)ccc1F (stereo not given) | 9.5 |
| Cc1ccc(OCC(=O)Nc2ncccc2OC(F)F)cc1 | -1.62 |
| CC(C)NC(=O)CCNC(=O)c1cc(Br)cn1C(C)C | 1.21 |
| COc1ccccc1-c1noc(CNc2ccc(F)cc2OCCO)n1 | 9.78 |
| N#Cc1cccc(OCC(=O)N(Cc2ccsc2)C2CC2)c1 | -12 |
| CCOc1ccc(OCC)c(NCc2cc(C)on2)c1 | 8.35 |
| Cc1nnc2n1CC(CNc1ncnc3ccccc13)CC2 (stereo not given) | -11.6 |
| CCc1[nH]n(C)c(=N)c1-c1ccc2c(c1)OCO2 | -6.78 |
| CCNC(=O)N1CCC(NC(=O)NCCCc2cccc(F)c2)C1 (stereo not given) | -4.92 |
| Cc1ccc2cc(C(=O)N3CCS(=O)(=O)CC3)[nH]c2c1 | -12.3 |
| OCc1cc2ccccc2nc1NCC1CC1 | -4.89 |
| CCOc1ccc(C#N)cc1NCc1cc(C)on1 | 27.9 |

| SMILES | cytotoxicity at 70.5 h [%] |
| --- | --- |
| CCNC(=O)N1CCC(NC(=O)NCCc2cccc(C)c2)C1 (stereo not given) | 4.49 |
| CCc1nc(Cn2c(=O)n(CC)c3ccccc32)no1 | -7.55 |
| OCc1cc2ccccc2nc1NC1CC=CC1 | -5.4 |
| Cc1nc(CN(CCS(C)(=O)=O)C(C)C)cs1 | -8.28 |
| CCOCCN1CCN(Cc2nnc(-c3occc3C)o2)CC1CC (stereo not given) | -5.31 |
| O=C(CN1CCOC(Cn2cccn2)C1)NC(C1CC1)C1CC1 (stereo not given) | -6.99 |
| FC(F)(F)c1cccc(N2CCC(NCc3cccnc3)CC2)c1 | 26.9 |
| CCC(SC)C(=O)N1CCC(n2cccn2)CC1 (stereo not given) | -6.08 |
| CSC(C)CC(=O)N1CCC(n2ccnn2)CC1 (stereo not given) | -8.7 |
| COCc1ccccc1CNC(=O)CN1CCC2(CCOC2)C1 (stereo not given) | 25 |
| c1cnn(-c2ccc(CCNC3CCN(C4CC4)C3)cc2)c1 (stereo not given) | 0.821 |
| CC(=O)N1CCCN(Cc2cc(F)cc(Br)c2)CC1 | 21 |
| N#Cc1ccc(OCCn2cccn2)cc1 | -16.4 |
| CC(C)(C)CC(=O)NCC(=O)Nc1ccn(Cc2cccnc2)n1 | 3.55 |
| CN1CC(C(=O)NC2(c3ccc(Cl)cc3)CCOCC2)CC1=O (stereo not given) | 2.23 |
| CCCOc1ccc(CNCCn2cccn2)cc1 | -12.1 |
| NS(=O)(=O)CC1CCCN1CCOc1ccccc1F (stereo not given) | -12.4 |
| Cc1noc(C)c1CSC1CCCN(c2cnn(C)c2)C1=O (stereo not given) | 5.52 |
| NC(=O)N1CCCN(Cc2cc(F)cc(Br)c2)CC1 | -8.26 |
| COc1ccc(C(C)Nc2cnn(C)c(=O)c2Cl)cc1OC (stereo not given) | -3.5 |
| CNC(=O)CNC(=O)Nc1cc(-c2ccccc2)ns1 | 29.7 |
| CCc1n[nH]c(=O)c(C(=O)N2CCSC(C)(C)C2)c1CC | -10.1 |
| CCc1n[nH]c(=O)c(C(=O)N2CCOC3(CCCC3)C2)c1CC | -2.62 |
| CCC(NC(=O)NCc1cccc(N(C)C)n1)c1nccs1 (stereo not given) | 32.1 |

| SMILES | cytotoxicity at 70.5 h [%] |
| --- | --- |
| O=C(NCC1CCN(c2ccncc2)CC1)C(O)c1ccccc1 (stereo not given) | 7.47 |
| COC(C)(C)CNC(=O)c1cn(-c2cccc(Cl)c2F)nn1 | 4.1 |
| FC(F)CN1CCC(NCCc2ccc(-n3cccn3)cc2)CC1 | -5.54 |
| CCC(=O)N1CCCN(Cc2cc(F)cc(Br)c2)CC1 | 16.2 |
| CN(CC(=O)NCC(F)(F)F)Cc1nc2c(s1)CCCC2 | -9.23 |
| CN(CC(=O)NCC1CCCO1)Cc1nc2c(s1)CCCC2 (stereo not given) | 25.9 |
| CN(Cc1ccc2c(c1)OCCO2)Cc1nnnn1-c1ccccc1 | -17.2 |
| COc1ccc(C2(NC(=O)C3CC(=O)N(C)C3)CCCC2)cc1 (stereo not given) | 20.4 |
| CC(C)n1nc2c(cc1=O)CN(CCOc1cccc(C#N)c1)CC2 | -8.86 |
| CC(C)n1nc2c(cc1=O)CN(CCOc1ccccc1C#N)CC2 | 6.74 |
| COCCCNC(=O)CN1CCOC(c2ccccc2)C1 (stereo not given) | 15.8 |
| COCCN1CCN(CC(=O)N(C)Cc2ccccc2)CC1C (stereo not given) | 53.1 |
| CCN(Cc1cccc(NC(=O)COC)c1)C(C)=O | 27.5 |
| O=C(NCC1CCOC1)c1csc(Cc2ccccc2)n1 (stereo not given) | 19.4 |
| Cc1cccc(C)c1OCCNC(=O)CNC(=O)C1CCCC1 | 23.5 |
| COc1ccccc1-c1cc(NC(=O)CCC2CCCO2)[nH]n1 (stereo not given) | 36.9 |
| COc1ccccc1-c1cc(NC(=O)CCS(=O)(=O)C2CCCC2)[nH]n1 | 25.9 |
| COc1ccccc1-c1cc(NC(=O)COCC2CC2)[nH]n1 | -4.9 |
| Cc1n[nH]cc1CNC1CCN(c2ccccc2)CC1 | 24.8 |
| Cn1cc(CNC2CCC(O)CC2)c(-c2cc3ccccc3o2)n1 (stereo not given) | -6.96 |
| Cc1n[nH]cc1CNC1CCN(c2ccc(F)cc2)CC1 | -8.94 |
| COc1cccc(CNC(C)c2ccc(-n3ccnc3)cc2)c1OC (stereo not given) | -8.35 |
| CC(C)(CNCc1ccc(OCc2cscn2)cc1)C(N)=O | 2.2 |
| Cn1[nH]c(Br)c2/c(=N\CCN)ncnc1-2 | -7.01 |
